In one assay the test system is HTB-54 cells. Kind of assay: MTT cell viability assay, HTB-54. Format: cell-based. Particulars: for viability at 10 µM / IC50: HTB-54, 48 h, MTT; for viability at 10 µM: read-out: Cell growth % at 10 µM, HTB-54; for SI (lung): IC50 (BEAS-2B)/IC50 (HTB-54). The method, boiled down:
(§1)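 Cells grown in RPMI 1640 with 10% FBS at 37 °C, 5% CO2 were seeded at 10^4/well and exposed 48 h to compound (0.5–100 µM dose range). Values are % viability at 10 µM, with IC50 ratios non-tumorigenic/tumor as selectivity index.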
(Tetrazolium assays rely on reduction of a dye to a coloured formazan, in cell work by metabolically active cells.)

The test system of a further assay is DU-145 cells. Kind of assay: MTT cell viability assay, DU-145. Format: cell-based. The settings on record: Homo sapiens, DU-145, 48 h, read-out: Cell growth % at 10 µM, DU-145. The essentials:
as §1

In a further assay the test system is HT-29 cells. The experiment in a line: MTT cell viability assay, HT-29. It is filed as cell-based. Particulars: Homo sapiens; for viability at 10 µM: HT-29, 10 µM, 48 h, read-out: Cell growth % at 10 µM, HT-29; for IC50: HT-29, 48 h.
The test system of the next assay is BEAS-2B cells. Kind of assay: MTT cell viability assay, BEAS-2B (non-tumorigenic). Format: cell-based. The settings on record: Homo sapiens, 48 h, nonmalignant bronchial epithelium. As for the experimental part: (§2) The cell lines were obtained from the American Type Culture Collection (ATCC). Five tumor cell lines (MDA-MB-231, MCF-7, HCT116, HTB-54, and DU-145) and two non-tumorigenic cells (184B5 and BEAS-2B) were grown in RPMI 1640 medium (Gibco), and the HT-29 tumor cell line was grown in McCoy’s medium. Both mediums were supplemented with 10% fetal bovine serum (FBS; Gibco) and 1% antibiotics (10.00 units/mL penicillin and 10.00 μg/mL streptomycin; Gibco). Cells were preserved in tissue culture flasks at 37 °C and 5% CO2. The culture medium was replaced every three days.
(§3) The effect of each compound on cell viability was tested using the MTT assay. […] Selected compounds were then tested at seven different concentrations (0.5–100 μM) in MCF-7, HCT116, HT-29, HTB-54, 184B5 and BEAS-2B cells. Cells were seeded at 10^4 per well onto flat-bottomed 96-well culture plates. They were treated with either DMSO or increasing concentration of the corresponding compound for 48 h. Then, they were incubated with 20 μL of 3-(4,5-dimethylthiazol-2-yl)-2,5-diphenyltetrazolium bromide (MTT) (2 mg /mL stock; Aldrich) for 2,5 h and analyzed for their ability to generate a purple formazan dye. These formazan crystals were dissolved in 50 μL of DMSO. The absorbance was measured at a wavelength of 550 nm and the ratio of viable cells was calculated.
Results are expressed as cell viability % at 10 μM. Selectivity index were calculated as the ratio of the IC50 values determined for the non-malignant and the tumor cells in breast (IC50 (184B5)/IC50 (MCF-7)) and lung (IC50 (BEAS-2B)/IC50 (HTB-54)) cell lines. Data were obtained from at least three independent experiments performed in triplicates.

Assay [1] has as its system HTB-54, DU-145, HT-29 and MDA-MB-231 cancer cell lines. Kind of assay: cells. Format: cell-based. The settings on record: against the panel of the four cancer cell lines. As for the experimental part:
as §2, §3
As a first approach, all the compounds were tested in vitro against lung (HTB-54), prostatic (DU-145), colon (HT-29), and triple-negative breast (MDA-MB-231) cancer cell lines at two concentrations (50 and 10 µM) for 48 h. Then, the MTT colorimetric assay was used to evaluate cell proliferation after the treatment. The data are expressed as the percentage of cell growth ± SD in at least three independent experiments performed in quadruplicates (Table S1).

For assay [2], the system named is panel of 60 human tumor cell lines. Kind of assay: NCI-60 analysis (One-Dose and Five-Dose), whole panel. The settings on record: 48 h; for GI50: Homo sapiens, Five-Dose assay, 60 cell lines; for mean growth percent: One Dose (10 µM), 60 cancer cell lines. Format: cell-based. As for the experimental part: (§4) Compounds 14a and 17a were submitted to the Developmental Therapeutics Program (DTP) of National Cancer Institute (NCI). Cytotoxicity activity was evaluated by performing One-Dose screening (10^−5 M) against a panel of 60 human tumor cell lines. […] Cells grew in the RPMI 1640 medium containing 5% fetal bovine serum and 2 mM L-glutamine and were inoculated into 96-well microtiter plates in 100 μL at plating densities ranging from 5.000 to 40.000 cells/well. The microtiter plates inoculated with cells were incubated at 37 °C, in 5% humidified CO2 for 24 h prior to addition of experimental drugs. Then, experimental drugs were added, and the microtiter plates were incubated for 48 h. The protocol is available on https://dtp.cancer.gov/discovery_development/nci-60/methodology.htm accessed on 31 December 2022.

For another assay, the system named is SNB-19 (CNS). Kind of assay: NCI-60 Five-Dose assay, SNB-19. It is filed as cell-based. The settings on record: Homo sapiens, 48 h. As for the experimental part: as §4, with “Cytotoxicity activity was evaluated by performing One-Dose screening (10^−5 M) against a panel of 60 human tumor cell lines.” left out
A further assay concerns the target T1, AChE (Rattus norvegicus, UniProt P37136).
T1 construct: from tissue; host or cells: frontal cortex of male Wistar rats (crude homogenate)
T1 sequence (P37136 32-614): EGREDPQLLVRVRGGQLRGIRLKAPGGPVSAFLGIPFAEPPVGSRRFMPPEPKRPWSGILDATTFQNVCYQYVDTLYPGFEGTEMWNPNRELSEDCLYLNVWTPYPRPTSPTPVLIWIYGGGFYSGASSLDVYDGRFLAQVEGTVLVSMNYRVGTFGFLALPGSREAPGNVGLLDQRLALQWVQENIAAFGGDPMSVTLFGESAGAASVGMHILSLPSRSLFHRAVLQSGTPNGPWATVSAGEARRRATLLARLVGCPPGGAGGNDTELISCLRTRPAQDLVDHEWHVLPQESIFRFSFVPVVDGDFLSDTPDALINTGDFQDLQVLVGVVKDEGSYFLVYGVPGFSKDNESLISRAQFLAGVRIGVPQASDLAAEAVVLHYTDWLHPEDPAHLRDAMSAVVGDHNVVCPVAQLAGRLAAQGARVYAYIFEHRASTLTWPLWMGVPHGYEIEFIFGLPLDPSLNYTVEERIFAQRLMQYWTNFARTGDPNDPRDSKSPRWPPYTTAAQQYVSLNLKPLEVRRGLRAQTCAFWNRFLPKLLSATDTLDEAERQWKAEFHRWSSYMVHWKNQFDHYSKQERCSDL
The experiment in a line: AChE inhibition by Ellman's method (rat frontal cortex homogenate). It is filed as biochemical. The method, boiled down: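 Ellman assay using male Wistar rat frontal cortex homogenate in 75 mM sodium phosphate pH 7.4, with acetylthiocholine iodide as substrate, 8 min incubation. Reaction stopped with SDS, then DTNB added; thionitrobenzoate colour read at 405 nm. Mean ± SD from three experiments.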
(In Ellman's method for cholinesterases, released thiocholine reacts with DTNB.)

For `C=CC[Se]C(=O)Cc1c(C)n(C(=O)c2ccc(Cl)cc2)c2ccc(OC)cc12` [Compound 17a, Se-allyl 2-[1-(4-chlorobenzoyl)-5-methoxy-2-methyl-1H-indol-3-yl]ethaneselenoate], the viability at 10 µM is 21.9 ± 6.5% with HTB-54 cells, 16.3 ± 8.4% in the assay on DU-145 cells, 38.7 ± 6% in the assay with HT-29 cells and less than 55% in assay [1]. Also, the concentration for half-maximal inhibition (IC50) (usually the point on the concentration scale where inhibition reaches its midpoint) with HTB-54 cells worked out at 7.9 ± 1.9 µM; in the assay with HT-29 cells, 5.9 ± 0.8 µM; in the assay on BEAS-2B cells, 6.3 ± 2.3 µM. In the assay on HTB-54 cells, the “SI (lung)” value was found to be 0.8. Moreover, the GI50 – broadly, the concentration that inhibits growth by half – in assay [2] is 1.74 µM; with SNB-19 (CNS) it was 0.66 µM. Further, the mean growth percent in assay [2] is −26.70. The inhibition (commonly how much of the control response was suppressed) at 1 µM against AChE (at 10^−6 M, Ellman's method) turned out to be 19.2 ± 8.3%.

In the case of `C=CC[Se]C(=O)c1ccccc1OC(C)=O` [Compound 14a, 2-(allylselanylcarbonyl)phenylacetate], the viability at 10 µM in the assay with HTB-54 cells was 34.2 ± 6.2%; with DU-145 cells it was 16.9 ± 8.6%; in the assay with HT-29 cells it was 53.9 ± 5.3%; in assay [1] it was less than 55%. For the same compound, the IC50 with HTB-54 cells is 9.9 ± 1.1 µM; in the assay with HT-29 cells, 6.4 ± 1 µM; with BEAS-2B cells it was 7.1 ± 2.4 µM; against AChE it was 0.9 ± 0.2 µM. For the same compound, the “SI (lung)” value in the assay with HTB-54 cells is 0.7. The values for the GI50 (in assay [2]; in the assay on SNB-19 (CNS)) were 1.79 µM and 0.49 µM, respectively. In assay [2], this compound came in with a mean growth percent of −5.89. For the same compound, the “% AChE Inhibition” value on AChE (at 10^−6 M, Ellman's method) was determined as 43.5 ± 2.6%. The compound also yielded an inhibition at 1 µM against AChE (at 10^−6 M, Ellman's method) of 43.5%.

The record behind these values is article PMC9854712 (Antioxidants, 2023).
